In ChEMBL document CHEMBL1201862, “PubChem BioAssay data set” (2004):
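Grown in 96-well plates, cells were treated for 48 hours with each compound at five concentrations. Insufficient inhibition: endpoint recorded as highest concentration tested. The concentration for 50% growth inhibition is given as GI50.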 Activity calls are given as the source filed them. No stated cut-off is given here; in the data, active = GI50 up to about 1.1 µM and inactive = higher.

Tests used:
Assay in all cases: inhibition of tumour cell growth, NCI panel, 48 h
[1] = test system: A498
[2] = test system: A549
[3] = test system: ACHN
[4] = test system: CCRF-CEM
[5] = test system: HOP-62
[6] = test system: LOX IMVI
[7] = test system: OVCAR-4
[8] = test system: RXF 393
[9] = test system: SF-539
[10] = test system: SK-MEL-2
[11] = test system: TK-10
[12] = test system: U-251
[13] = test system: UO-31
[14] = test system: XF498
[15] = test system: HOP-92
[16] = test system: DU-145
[17] = test system: Hs-578T
[18] = test system: MCF7
[19] = test system: PC-3
[20] = test system: T47D

Measured: GI50

Clc1cc2n[se]nc2cc1Cl
inactive: [1] > 100 µM | [2] > 100 µM | [3] > 100 µM | [4] > 100 µM | [5] > 100 µM | [6] > 100 µM | [7] > 100 µM | [8] > 100 µM | [9] > 100 µM | [10] > 100 µM | [11] > 100 µM | [12] > 100 µM | [13] > 100 µM | [14] > 100 µM

COc1cccc2c(SCC(=O)Nc3ccccc3-c3ccccc3NC(=O)CSc3c4ccccc4nc4c(OC)cccc34)c3ccccc3nc12
inactive: [2] > 100 µM | [3] > 100 µM | [4] > 100 µM | [5] > 100 µM | [7] > 100 µM | [8] 57.9 µM | [9] 60.5 µM | [10] > 100 µM | [11] > 100 µM | [12] > 100 µM | [14] 76.6 µM

CCCCCC(CN1CCOCC1)C(=O)/C=C/c1ccccc1 (configuration not stated)
inactive: [2] 3.3 µM | [4] 1.94 µM | [5] 5 µM | [15] 2.19 µM | [6] 1.37 µM | [7] 2.95 µM | [8] 1.82 µM | [9] 2.07 µM | [12] 2.77 µM | [13] 6.61 µM | [14] 1.72 µM

C/C=C/[C@@H](C(=O)OC)N1C(=O)c2ccccc2[C@H]1O
inactive: [1] > 100 µM | [2] > 100 µM | [3] > 100 µM | [4] > 100 µM | [16] > 100 µM | [5] > 100 µM | [15] > 100 µM | [17] > 100 µM | [6] > 100 µM | [18] > 100 µM | [7] > 100 µM | [19] > 100 µM | [8] > 100 µM | [9] > 100 µM | [10] > 100 µM | [20] > 100 µM | [11] > 100 µM | [12] > 100 µM | [13] > 100 µM

CCOC(=O)c1cnc2[nH]c(=O)c3ccccc3n2c1=O
inactive: [2] > 100 µM | [3] > 100 µM | [4] > 100 µM | [5] > 100 µM | [15] > 100 µM | [6] > 100 µM | [7] > 100 µM | [8] > 100 µM | [9] > 100 µM | [10] > 100 µM | [11] > 100 µM | [12] > 100 µM | [13] > 100 µM | [14] > 100 µM

C=CCCCCCC(O)C(O)C/C=C\C/C=C\CC (configuration not stated)
inactive: [2] > 18.8 µM | [3] > 18.8 µM | [4] > 18.8 µM | [5] > 16.8 µM | [15] > 18.8 µM | [6] > 15.4 µM | [7] > 18.8 µM | [8] > 18.8 µM | [9] > 18.8 µM | [10] > 18.8 µM | [11] > 18.8 µM | [12] > 18.8 µM | [13] > 18.8 µM | [14] > 18.8 µM

CCNC(=O)Cc1nc2c(O)ncnc2n1C1OC(CO)C(O)C1O (configuration not stated)
inactive: [1] > 100 µM | [2] > 100 µM | [3] > 100 µM | [4] > 100 µM | [16] > 100 µM | [5] > 100 µM | [15] > 100 µM | [17] > 100 µM | [6] > 100 µM | [18] > 100 µM | [7] > 100 µM | [19] > 100 µM | [8] > 100 µM | [9] > 100 µM | [10] > 100 µM | [20] > 100 µM | [11] > 100 µM | [12] > 100 µM | [13] > 100 µM
